From EP3593822A1, “THERAPEUTIC AND DIAGNOSTIC APPLICATIONS OF A NEW METHOD OF MONITORING OF NEUROGLIAL INTERACTION MEMRI)” (Theranexus, priority 2018, dated 2020)
Structures can show the parent of a compound that is named as a salt.

Target: T1, Cx43 (Mus musculus, UniProt P23242)
T1 construct: from tissue; host or cells: brain of living wild-type C57BL/6 male mice (in vivo)
Assay: Manganese-enhanced MRI (MEMRI) of mouse brain after administration of connexin modulators
Assay type: in vivo, wild-type C57BL/6 male mice
Details: for T1-w signal intensity (% of control): 1 mg/kg i.p. 2.5h before imaging, 24h after MnCl2 50 mg/kg i.p., mean ± SEM; for increase of T1-w signal intensity: n=6, change versus control, 1 mg/kg i.p.
Protocol: The MRI measurements were performed on 42 wild-type C57BL/6 male mice. All mice weighed between 25 and 35 g. Mice were housed 4-5 per cage under standard conditions (12/12 h light-dark cycle, light on at 7 am, 22 ± 1°C ambient temperature, 60% relative humidity). This work was carried out in accordance with the Policies of the French Committee of Ethics. Animal surgery and experimentations conducted in this study were authorized by the French Direction of Veterinary Services and all efforts were made to improve animal welfare and minimize animals suffering.
All animals were injected intraperitoneally with MnCl2 50 mg/kg. Animals received an injection of treatment (or saline) 24h after the MnCl2 administration, and were imaged 2.5h later.
The mice were anesthetized with 0.5-1.0% isoflurane in air throughout the experiments. The respiration rate was monitored and the body temperature was maintained at 36.5 °C using an MR-compatible, feedback-controlled air heating system (model 1025; SA Instruments, NY). A capillary filled with 100 µM MnCl2 was placed on the head, inside the RF coil, and was used as signal intensity reference.
The T1-weighted images were acquired using a 3D rapid acquisition with relaxation enhancement (RARE) sequence: RARE factor 4, repetition time/echo time = 250 ms / 6 ms, 4 averages. For T1 relaxation time measurements, a true fast Imaging with Steady-state free Precession (trueFISP) sequence was used with the following acquisition parameters: repetition time/echo time = 3.66/1.83 ms, flip angle = 10, inversion time = 80 ms, number of inversion times = 60, 2 averages.
The position of the brain image was co-registered to a template using SPM8 software (Welcome Trust Center for Neuroimaging, UK). The template image was co-registered to mouse brain atlas (Paxinos and Franklin's the Mouse Brain in Stereotaxic Coordinates 3rd Edition). T1-weighted signals were normalized using the signal intensity from the reference tube. T1 maps were calculated as described previously elsewhere (74). Eighteen regions of interest (ROIs) were defined using the mouse brain atlas.
The averaged T1-weighted signals and T1 values were calculated using an in house written Matlab program. To compensate for differences in coil sensitivity between left and right channels we calculated the signal intensities in ROIs drawn in the left and right cerebral cortex, including the somatosensory cortex and insular cortex, (ROIcortex_left ROIcortex_right). The averaged T1-weighted signal intensity on the left side (SIleft) was then corrected following the equation: SIleft_corrected = SIleft × SIcortex_right /SIcortex_left [formula]
Statistical analyses were performed using GraphPad Prism version 7.0c. Data were analyzed using Mann-Whitney non-parametric test, paired t test or one sample t test compared to the hypothetical value 1 or 100 as appropriate. In each experiment, a level of p<0.05 was accepted as evidence for a statistically significant effect. * p<0.05; ** p<0.01; *** p<0.001. Response of the MEMRI signal after drugs administration are expressed as means ± SEM of percent of control. The remaining data are expressed as mean ± SEM.
For all, MEMRI signals are expressed as percentage of control. Statistical significances are based on the comparison to the hypothetical value 100%.

[1] = LPB = Lateral parabrachial nucleus
[2] = mPFC = Medial prefrontal cortex

T1 sequence (P23242 2-382 limits assumed): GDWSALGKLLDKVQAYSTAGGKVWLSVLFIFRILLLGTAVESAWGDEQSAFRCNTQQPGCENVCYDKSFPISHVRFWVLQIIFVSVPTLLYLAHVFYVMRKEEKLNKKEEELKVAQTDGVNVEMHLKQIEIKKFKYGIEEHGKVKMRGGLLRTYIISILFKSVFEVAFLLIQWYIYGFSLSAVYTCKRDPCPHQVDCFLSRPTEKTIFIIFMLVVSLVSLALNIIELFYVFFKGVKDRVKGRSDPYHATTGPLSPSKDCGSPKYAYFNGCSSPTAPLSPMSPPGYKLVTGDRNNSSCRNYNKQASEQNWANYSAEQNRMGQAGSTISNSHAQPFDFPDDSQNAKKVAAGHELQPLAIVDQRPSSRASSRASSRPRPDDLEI

SMILES	T1-w signal intensity (% of control) (AC = Auditory cortex)	T1-w signal intensity (% of control) (Cg = Cingulate cortex)	T1-w signal intensity (% of control) (Cpu = Caudate putamen)	T1-w signal intensity (% of control) (DRa = Dorsal raphe pallidus)	T1-w signal intensity (% of control) (Hip = Hippocampus)	T1-w signal intensity (% of control) (Hyp = Hypothalamus)	T1-w signal intensity (% of control) (IC = Insular cortex)	T1-w signal intensity (% of control) (LC = Locus coeruleus)	T1-w signal intensity (% of control) [1]	T1-w signal intensity (% of control) (MC = Motor cortex)	T1-w signal intensity (% of control) (OB = Olfactory bulb)	T1-w signal intensity (% of control) (OC = Orbital cortex)	T1-w signal intensity (% of control) (PrL = Prelimbic cortex)	T1-w signal intensity (% of control) (SC = Somatosensory cortex)	T1-w signal intensity (% of control) (SN = Substantia nigra)	T1-w signal intensity (% of control) (Sep = Septum)	T1-w signal intensity (% of control) (ThN = Thalamic nuclei)	increase of T1-w signal intensity (hypothalamus)	T1-w signal intensity (% of control) [2]	increase of T1-w signal intensity (olfactory bulb)	also measured
O=C(NCC1CCCCN1)c1cc(OCC(F)(F)F)ccc1OCC(F)(F)F (centres unmarked) [flecainide, flecainide acetate salt]	114 ± 4.04 % of control	123 ± 5.73 % of control	120 ± 6.01 % of control	122 ± 6.86 % of control	118 ± 4.73 % of control	121 ± 7.05 % of control	118 ± 5.62 % of control	119 ± 5.69 % of control	119 ± 6.07 % of control	122 ± 5.09 % of control	123 ± 9.21 % of control	123 ± 8.23 % of control	121 ± 7.09 % of control	120 ± 4.88 % of control	117 ± 6.97 % of control	119 ± 6.95 % of control	121 ± 5.47 % of control	~+20.9%	121 ± 6.86 % of control	–	increase of T1-w signal intensity (dorsal raphe pallidus): approximately +21.9%; increase of T1-w signal intensity (lateral parabrachial nucleus): ~+19%; increase of T1-w signal intensity (locus coeruleus): ~+19.2%
Cc1ccc(Cl)c(Nc2ccccc2C(=O)O)c1Cl [meclofenamic acid]	117 ± 5.68 % of control	127 ± 4.49 % of control	130 ± 3.90 % of control	112 ± 5.31 % of control	118 ± 4.32 % of control	118 ± 5.38 % of control	128 ± 5.17 % of control	104 ± 6.23 % of control	106 ± 6.15 % of control	122 ± 4.61 % of control	147 ± 4.91 % of control	138 ± 4.69 % of control	136 ± 4.41 % of control	120 ± 4.90 % of control	118 ± 5.67 % of control	136 ± 3.68 % of control	120 ± 4.87 % of control	approximately +18.5%	136 ± 4.33 % of control	~+47.4%	T1-w signal intensity (% of control) (LPB = Lateral parabrachial nucleus, listed as MFA): 106 ± 6,15 % of control; increase of T1-w signal intensity (substantia nigra): ~+17.9%
OC(c1cc(C(F)(F)F)nc2c(C(F)(F)F)cccc12)C1CCCCN1 (centres unmarked) [mefloquine, Mefloquine]	–	–	–	113 ± 6.84 % of control	–	113 ± 8.39 % of control	–	111 ± 7.61 % of control	111 ± 6.96 % of control	–	–	–	–	–	–	–	–	–	–	+26.5%	increase of T1-w signal intensity (substantia nigra): +19,2%
